PubChem BioAssay (NCI)
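Exposure lasted 48 hours, with cells grown in 96-well plates and compounds tested at five concentrations. TGI: total growth inhibition.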

Assays:
Assay in all cases: inhibition of tumour cell growth, NCI panel, 48 h
OVCAR-8 ovarian = system: OVCAR-8 ovarian
SK-MEL-28 melanoma = system: SK-MEL-28 melanoma
SNB-75 CNS = system: SNB-75 CNS
SK-MEL-5 melanoma = system: SK-MEL-5 melanoma
T-47D breast = system: T-47D breast
RXF 393 renal = system: RXF 393 renal
NCI-H226 lung = system: NCI-H226 lung
UO-31 renal = system: UO-31 renal
KM12 colon = system: KM12 colon
UACC-62 melanoma = system: UACC-62 melanoma
786-0 renal = system: 786-0 renal
OVCAR-4 ovarian = system: OVCAR-4 ovarian
LOX IMVI melanoma = system: LOX IMVI melanoma
IGROV1 ovarian = system: IGROV1 ovarian
MCF7 breast = system: MCF7 breast
NCI/ADR-RES ovarian = system: NCI/ADR-RES ovarian
NCI-H23 lung = system: NCI-H23 lung
RPMI-8226 leukemia = system: RPMI-8226 leukemia
A549 NSCLC = system: A549 NSCLC
COLO 205 colon = system: COLO 205 colon
SF-539 CNS = system: SF-539 CNS
PC-3 prostate = system: PC-3 prostate
TK-10 renal = system: TK-10 renal
HCC-2998 colon = system: HCC-2998 colon
SW-620 colon = system: SW-620 colon
MDA-MB-231 breast = system: MDA-MB-231 breast
BT-549 breast = system: BT-549 breast
OVCAR-3 ovarian = system: OVCAR-3 ovarian
U251 CNS = system: U251 CNS
DU-145 prostate = system: DU-145 prostate
HOP-62 NSCLC = system: HOP-62 NSCLC
ACHN renal = system: ACHN renal
M14 melanoma = system: M14 melanoma
SK-OV-3 ovarian = system: SK-OV-3 ovarian
MDA-N = system: MDA-N
HCT-15 colon = system: HCT-15 colon
CCRF-CEM leukemia = system: CCRF-CEM leukemia
MDA-MB-435 = system: MDA-MB-435
NCI-H460 lung = system: NCI-H460 lung
SF-268 CNS = system: SF-268 CNS
SR leukemia = system: SR leukemia
SN12C renal = system: SN12C renal
SF-295 CNS = system: SF-295 CNS
K-562 leukemia = system: K-562 leukemia
UACC-257 melanoma = system: UACC-257 melanoma
HCT-116 colon = system: HCT-116 colon
HS 578T breast = system: HS 578T breast
SK-MEL-2 melanoma = system: SK-MEL-2 melanoma
MALME-3M melanoma = system: MALME-3M melanoma
HOP-92 NSCLC = system: HOP-92 NSCLC
SNB-19 CNS = system: SNB-19 CNS
CAKI-1 renal = system: CAKI-1 renal
EKVX NSCLC = system: EKVX NSCLC
HL-60(TB) leukemia = system: HL-60(TB) leukemia
OVCAR-5 ovarian = system: OVCAR-5 ovarian
A498 renal = system: A498 renal
HT29 colon = system: HT29 colon

Question: What does the source list for `CCn1ncc(Oc2c(Cl)cc(N)cc2Cl)c(Cl)c1=O`?
Answer: TGI (OVCAR-8 ovarian): > 100 µM; TGI (SK-MEL-28 melanoma): > 100 µM; TGI (SNB-75 CNS): > 100 µM; TGI (SK-MEL-5 melanoma): 65 µM; TGI (T-47D breast): > 100 µM; TGI (RXF 393 renal): > 100 µM; TGI (NCI-H226 lung): > 100 µM; TGI (UO-31 renal): > 100 µM; TGI (KM12 colon): > 100 µM; TGI (UACC-62 melanoma): > 100 µM; TGI (786-0 renal): > 100 µM; TGI (OVCAR-4 ovarian): > 100 µM; TGI (LOX IMVI melanoma): > 100 µM; TGI (IGROV1 ovarian): > 100 µM; TGI (MCF7 breast): > 100 µM; TGI (NCI/ADR-RES ovarian): > 100 µM; TGI (NCI-H23 lung): > 100 µM; TGI (RPMI-8226 leukemia): > 100 µM; TGI (A549 NSCLC): > 100 µM; TGI (COLO 205 colon): 46.9 µM; TGI (SF-539 CNS): > 100 µM; TGI (PC-3 prostate): > 100 µM; TGI (TK-10 renal): > 100 µM; TGI (HCC-2998 colon): > 100 µM; TGI (SW-620 colon): > 100 µM; TGI (MDA-MB-231 breast): > 100 µM; TGI (BT-549 breast): 91.1 µM; TGI (OVCAR-3 ovarian): 40.7 µM; TGI (U251 CNS): > 100 µM; TGI (DU-145 prostate): > 100 µM; TGI (HOP-62 NSCLC): > 100 µM; TGI (ACHN renal): > 100 µM; TGI (M14 melanoma): > 100 µM; TGI (SK-OV-3 ovarian): 77.9 µM; TGI (MDA-N): 79.6 µM; TGI (HCT-15 colon): > 100 µM; TGI (CCRF-CEM leukemia): > 100 µM; TGI (MDA-MB-435): > 100 µM; TGI (NCI-H460 lung): > 100 µM; TGI (SF-268 CNS): > 100 µM; TGI (SR leukemia): 80.7 µM; TGI (SN12C renal): > 100 µM; TGI (SF-295 CNS): 63.6 µM; TGI (K-562 leukemia): > 100 µM; TGI (UACC-257 melanoma): > 100 µM; TGI (HCT-116 colon): 80.8 µM; TGI (HS 578T breast): 67.6 µM; TGI (SK-MEL-2 melanoma): > 100 µM; TGI (MALME-3M melanoma): > 100 µM; TGI (HOP-92 NSCLC): > 100 µM; TGI (SNB-19 CNS): > 100 µM; TGI (CAKI-1 renal): > 100 µM; TGI (EKVX NSCLC): > 100 µM; TGI (HL-60(TB) leukemia): > 100 µM; TGI (OVCAR-5 ovarian): > 100 µM; TGI (A498 renal): > 100 µM; TGI (HT29 colon): 58.5 µM
